Laboratory results published in ChEMBL document CHEMBL4665758, “Identification of 5H-chromeno[3,4-c]pyridine and 6H-isochromeno[3,4-c]pyridine derivatives as potent and selective dual ROCK inhibitors” (Bioorg Med Chem Lett, 2020).

These molecules were tested against Rho-associated protein kinase 1 (Homo sapiens, UniProt Q13464).
Sequence of Rho-associated protein kinase 1 (Q13464 whole entry): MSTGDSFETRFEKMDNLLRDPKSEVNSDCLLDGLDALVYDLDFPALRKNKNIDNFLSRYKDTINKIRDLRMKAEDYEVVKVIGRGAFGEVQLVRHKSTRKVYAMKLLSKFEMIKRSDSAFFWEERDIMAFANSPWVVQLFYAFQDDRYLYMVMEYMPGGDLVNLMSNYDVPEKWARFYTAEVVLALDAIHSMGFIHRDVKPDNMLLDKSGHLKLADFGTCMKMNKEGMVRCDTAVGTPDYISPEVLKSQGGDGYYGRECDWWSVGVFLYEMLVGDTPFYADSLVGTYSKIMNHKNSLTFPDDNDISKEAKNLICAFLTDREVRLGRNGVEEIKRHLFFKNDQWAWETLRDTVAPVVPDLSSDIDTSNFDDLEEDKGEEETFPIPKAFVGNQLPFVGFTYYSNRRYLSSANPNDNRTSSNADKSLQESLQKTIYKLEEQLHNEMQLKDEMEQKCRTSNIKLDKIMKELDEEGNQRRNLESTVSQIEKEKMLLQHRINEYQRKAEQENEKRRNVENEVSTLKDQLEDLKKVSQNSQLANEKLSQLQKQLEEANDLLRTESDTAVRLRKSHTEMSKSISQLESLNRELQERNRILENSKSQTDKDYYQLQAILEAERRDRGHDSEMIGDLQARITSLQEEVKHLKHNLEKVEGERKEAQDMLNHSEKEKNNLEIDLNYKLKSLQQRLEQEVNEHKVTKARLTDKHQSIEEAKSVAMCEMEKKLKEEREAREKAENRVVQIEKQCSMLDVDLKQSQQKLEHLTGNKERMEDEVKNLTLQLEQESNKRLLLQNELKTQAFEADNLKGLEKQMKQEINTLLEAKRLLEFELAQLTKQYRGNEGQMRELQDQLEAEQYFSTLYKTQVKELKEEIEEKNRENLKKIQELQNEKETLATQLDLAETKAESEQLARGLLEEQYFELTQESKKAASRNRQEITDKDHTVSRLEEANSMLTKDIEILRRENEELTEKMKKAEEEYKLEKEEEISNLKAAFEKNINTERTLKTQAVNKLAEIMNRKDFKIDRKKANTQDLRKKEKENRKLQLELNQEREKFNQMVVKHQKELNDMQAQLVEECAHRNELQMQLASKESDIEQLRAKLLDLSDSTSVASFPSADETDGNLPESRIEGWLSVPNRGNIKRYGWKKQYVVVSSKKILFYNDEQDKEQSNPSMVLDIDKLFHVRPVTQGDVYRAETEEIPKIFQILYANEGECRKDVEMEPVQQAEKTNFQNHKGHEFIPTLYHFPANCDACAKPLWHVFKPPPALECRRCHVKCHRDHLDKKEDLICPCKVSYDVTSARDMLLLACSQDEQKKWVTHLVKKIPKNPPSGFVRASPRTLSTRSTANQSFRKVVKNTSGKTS

Structure (SMILES)	IC50 [nM]
N[C@@H](COc1ccc2c(c1)OCc1cnccc1-2)Cc1ccccc1	71
N[C@@H](C(=O)Nc1ccc2c(c1)OCc1cnccc1-2)c1ccccc1	16
COc1cccc(C(C)NC(=O)c2ccc3c(c2)OCc2cnccc2-3)n1 (configuration not stated)	27
COc1cccc([C@@H](C)NC(=O)c2ccc3c(c2)C(C)Oc2cnccc2-3)c1 (some centres not stated)	0.49
COc1cccc([C@@H](C)NC(=O)c2ccc3c(c2)COc2cnc(N)cc2-3)c1	171
COc1cccc([C@@H](C)NC(=O)c2ccc3c(c2)COc2cncnc2-3)c1	38
COc1cccc([C@@H](C)NC(=O)c2ccc3c(c2)OC(C)c2cnccc2-3)c1 (mixture of isomers)	15
CCNC(=O)c1cc(CNC(=O)c2ccc3c(c2)C(CC)Oc2cnccc2-3)ccc1F (racemic)	20
CCC1Oc2cnccc2-c2ccc(C(=O)N[C@H](C)c3cccc(OC)c3)cc21 (stereo in doubt; 18)	2
CCC1Oc2cnccc2-c2ccc(C(=O)N[C@H](C)c3cccc(OC)c3)cc21 (stereo in doubt; 19)	0.67

The remaining lines, values ahead:

IC50 [nM]	Structure (SMILES)
19	N[C@H](Cc1ccccc1)C(=O)Nc1ccc2c(c1)OCc1cnccc1-2
4.1	COc1cccc([C@@H](C)NC(=O)c2ccc3c(c2)C(C2CC2)Oc2cnccc2-3)c1 (some centres not stated)
18	C[C@@H](NC(=O)c1ccc2c(c1)OCc1cnccc1-2)c1ccccc1
140	O=C(Cc1ccccc1)Nc1ccc2c(c1)OCc1cnccc1-2
0.63	CCC1Oc2cnccc2-c2ccc(C(=O)N[C@H](C)c3cccc(OC)c3)cc21 (mixture of isomers)
1.2	CCN1CCC[C@H]1CNC(=O)c1cccc(CNC(=O)c2ccc3c(c2)C(C)Oc2cnccc2-3)c1 (mixture of isomers)

These molecules were tested against Rho-associated protein kinase 2 (Homo sapiens, UniProt O75116).
Sequence of Rho-associated protein kinase 2 (O75116 whole entry): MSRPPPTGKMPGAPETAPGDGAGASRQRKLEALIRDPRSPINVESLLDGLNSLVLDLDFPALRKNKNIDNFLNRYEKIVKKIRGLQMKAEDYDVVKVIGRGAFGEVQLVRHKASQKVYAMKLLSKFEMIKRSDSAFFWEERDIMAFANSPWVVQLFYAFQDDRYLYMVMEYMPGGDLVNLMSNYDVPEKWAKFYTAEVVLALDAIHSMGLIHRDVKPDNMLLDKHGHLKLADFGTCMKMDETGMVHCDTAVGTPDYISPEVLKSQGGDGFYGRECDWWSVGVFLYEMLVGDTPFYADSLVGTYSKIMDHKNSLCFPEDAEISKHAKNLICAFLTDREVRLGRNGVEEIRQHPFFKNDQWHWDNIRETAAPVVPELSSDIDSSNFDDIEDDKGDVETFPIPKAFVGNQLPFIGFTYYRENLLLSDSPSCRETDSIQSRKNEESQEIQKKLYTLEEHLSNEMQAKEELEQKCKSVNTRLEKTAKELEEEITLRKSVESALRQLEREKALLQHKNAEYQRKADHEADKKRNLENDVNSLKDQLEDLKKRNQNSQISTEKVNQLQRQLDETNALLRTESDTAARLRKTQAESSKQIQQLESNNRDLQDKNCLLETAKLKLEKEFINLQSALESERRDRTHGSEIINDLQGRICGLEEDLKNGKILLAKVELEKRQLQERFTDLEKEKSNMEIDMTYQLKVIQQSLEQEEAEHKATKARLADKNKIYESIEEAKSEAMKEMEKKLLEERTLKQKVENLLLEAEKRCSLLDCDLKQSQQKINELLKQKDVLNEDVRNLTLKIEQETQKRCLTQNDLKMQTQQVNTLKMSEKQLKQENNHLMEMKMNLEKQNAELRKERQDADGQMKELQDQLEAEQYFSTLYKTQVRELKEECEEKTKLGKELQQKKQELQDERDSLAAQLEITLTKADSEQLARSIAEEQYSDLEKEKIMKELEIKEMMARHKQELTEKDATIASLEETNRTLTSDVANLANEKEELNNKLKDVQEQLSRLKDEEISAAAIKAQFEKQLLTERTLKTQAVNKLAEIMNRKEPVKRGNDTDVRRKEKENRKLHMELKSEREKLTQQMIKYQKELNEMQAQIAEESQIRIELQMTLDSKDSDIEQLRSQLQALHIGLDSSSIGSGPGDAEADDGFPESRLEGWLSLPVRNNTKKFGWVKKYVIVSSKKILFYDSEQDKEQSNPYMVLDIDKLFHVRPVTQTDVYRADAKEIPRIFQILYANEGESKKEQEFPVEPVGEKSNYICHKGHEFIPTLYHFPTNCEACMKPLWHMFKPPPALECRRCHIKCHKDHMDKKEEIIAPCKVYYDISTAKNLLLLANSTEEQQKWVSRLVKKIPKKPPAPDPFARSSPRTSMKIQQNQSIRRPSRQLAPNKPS

IC50 [nM]	Structure (SMILES)
20	C[C@H]1CNCCCN1S(=O)(=O)c1cccc2cncc(F)c12
